Assay results reported in patent US20020035061A1, “COMPOSITIONS AND METHODS FOR TREATING INFECTIONS USING CATIONIC PEPTIDES ALONE OR IN COMBINATION WITH ANTIBIOTICS” (priority 1996, published 2002).
Read-outs that look alike come from different tables or passages of the source.

Legend:
[1] = tested on: inherently resistant microorganisms; assay: microbe, parasite or virus in culture; format: cell-based
[2] = tested on: vancomycin / teicoplanin resistant enterococci; assay: microbe, parasite or virus in culture; format: cell-based
A. calcoaceticus = format: cell-based; conditions: A. calcoaceticus AC002
E. cloacae = format: cell-based; conditions: E. cloacae ECL007
E. coli = format: cell-based; conditions: for Peptide MIC values: agarose dilution
E. faecalis = format: cell-based; conditions: E. faecalis EFS002
E. faecium = format: cell-based
H. influenzae = assay: Agarose dilution assay (MIC); format: cell-based; conditions: H. influenzae HIN002
K. pneumoniae = format: cell-based; conditions: K. pneumoniae KP002
P. aeruginosa = format: cell-based; conditions: for Peptide MIC values: agarose dilution
S. aureus = format: cell-based; conditions: for Peptide MIC values: agarose dilution
S. epidermidis = format: cell-based; conditions: S. epidermidis SE002
S. maltophilia = format: cell-based; conditions: S. maltophilia SMA002
S. marcescens = format: cell-based; conditions: for Peptide MIC values: agarose dilution
S. pneumoniae = assay: Agarose dilution assay (MIC); format: cell-based; conditions: for Peptide MIC values: agarose dilution
[3] = tested on: MSSA (Smith, ATCC # 19640); assay: In vivo efficacy, MSSA infection; parameters: species or system S. aureus; conditions: formulation D, 60 min post-infection, end of eight day observation
[4] = S. aureus MRSA, Piperacillin section
[5] = peptide + Piperacillin, S. aureus MRSA
[6] = E. faecium EFM020, Amikacin section
[7] = peptide + Amikacin, E. faecium EFM020

KWKSFIKKLTSAAKKVVTTAKPLISS [MBI 26]
MBI 26 MIC + Erythro. ([1]; A. calcoaceticus AC001): 8 µg/mL
MBI 26 MIC Alone ([1]; A. calcoaceticus AC001): 16 µg/mL
MBI 26 MIC + Vancomycin ([1]; E. casseliflavus 97056 VanC): 1 µg/mL
MBI 26 MIC Alone ([1]; E. casseliflavus 97056 VanC): 8 µg/mL
MBI 26 MIC + Vancomycin ([1]; E. casseliflavus 97057 VanC): 0.5 µg/mL
MBI 26 MIC Alone ([1]; E. casseliflavus 97057 VanC): 2 µg/mL
MBI 26 MIC + Vancomycin ([1]; E. casseliflavus 97058 VanC): 0.25 µg/mL
MBI 26 MIC Alone ([1]; E. casseliflavus 97058 VanC): 4 µg/mL
MBI 26 MIC + Vancomycin ([1]; E. casseliflavus 97059 VanC): 0.5 µg/mL
MBI 26 MIC Alone ([1]; E. casseliflavus 97059 VanC): 32 µg/mL
MBI 26 MIC + Vancomycin ([1]; E. casseliflavus 97060 VanC): 0.25 µg/mL
MBI 26 MIC Alone ([1]; E. casseliflavus 97060 VanC): 0.5 µg/mL
Peptide MIC + Mupirocin ([1]; E. coli): 1 µg/mL
Peptide MIC Alone ([1]; E. coli, Mupirocin section): 2 µg/mL
MBI 26 MIC + Vancomycin ([1]; E. gallinarum 97044 VanC): 0.5 µg/mL
MBI 26 MIC Alone ([1]; E. gallinarum 97044 VanC): 8 µg/mL
MBI 26 MIC + Vancomycin ([1]; E. gallinarum 97046 VanC): 4 µg/mL
MBI 26 MIC Alone ([1]; E. gallinarum 97046 VanC): 2 µg/mL
MBI 26 MIC + Vancomycin ([1]; E. gallinarum 97047 VanC): 8 µg/mL
MBI 26 MIC Alone ([1]; E. gallinarum 97047 VanC): 64 µg/mL
MBI 26 MIC + Vancomycin ([1]; E. gallinarum 97048 VanC): 2 µg/mL
MBI 26 MIC Alone ([1]; E. gallinarum 97048 VanC): 2 µg/mL
MBI 26 MIC + Vancomycin ([1]; E. gallinarum 97049 VanC): 16 µg/mL
MBI 26 MIC Alone ([1]; E. gallinarum 97049 VanC): 64 µg/mL
MBI 26 MIC + Erythro. ([1]; K. pneumoniae KP001): 8 µg/mL
MBI 26 MIC Alone ([1]; K. pneumoniae KP001): 16 µg/mL
MBI 26 MIC + Erythro. ([1]; K. pneumoniae KP002): 32 µg/mL
MBI 26 MIC Alone ([1]; K. pneumoniae KP002): 64 µg/mL
MBI 26 MIC + Erythro. ([1]; P. aeruginosa PA041): 32 µg/mL
MBI 26 MIC Alone ([1]; P. aeruginosa PA041): 64 µg/mL
Peptide MIC Alone ([1]; P. aeruginosa, Ceftriaxone section): 128 µg/mL
Peptide MIC + Piperacillin ([1]; S. aureus MRSA): 4 µg/mL
Peptide MIC Alone [1, 4]: 32 µg/mL
Peptide MIC + Ceftriaxone ([1]; S. maltophilia): 2 µg/mL
Peptide MIC Alone ([1]; S. maltophilia, Ceftriaxone section): 8 µg/mL
FIC ([1]; peptide + Amikacin, S. maltophilia): 0.19
FIC ([1]; peptide + Ceftriaxone, S. maltophilia): 0.25
FIC ([1]; peptide + Mupirocin, E. coli): 0.50
FIC [1, 5]: 0.13
Peptide MIC Alone ([2]; E. faecalis EFS005): >128 µg/mL
Peptide MIC Alone ([2]; E. faecalis EFS010): 4 µg/mL
Peptide MIC Alone ([2]; E. faecalis EFS011): >128 µg/mL
MBI 26 Alone (MIC) ([2]; E. faecalis VanA strains): 64 µg/mL
MBI 26 + Teicoplanin (MIC) ([2]; E. faecalis VanA strains, in combination with teicoplanin): 8 µg/mL
Amikacin MIC + Peptide ([2]; E. faecium EFM004): 8 µg/mL
Peptide MIC + Amikacin ([2]; E. faecium EFM004): 32 µg/mL
Peptide MIC Alone ([2]; E. faecium EFM004): 64 µg/mL
Peptide MIC Alone ([2]; E. faecium EFM004, Amikacin section): 64 µg/mL
Peptide MIC Alone ([2]; E. faecium EFM010): 32 µg/mL
Peptide MIC Alone ([2]; E. faecium EFM011): 32 µg/mL
Amikacin MIC + Peptide ([2]; E. faecium EFM020): 8 µg/mL
Peptide MIC + Amikacin ([2]; E. faecium EFM020): 32 µg/mL
Peptide MIC Alone [2, 6]: 64 µg/mL
FIC ([2]; Vancomycin + peptide, E. faecalis EFS005): 0.31
FIC ([2]; Vancomycin + peptide, E. faecalis EFS010): 0.27
FIC ([2]; Vancomycin + peptide, E. faecalis EFS011): 0.25
FIC ([2]; Vancomycin + peptide, E. faecium EFM004): 0.25
FIC ([2]; Vancomycin + peptide, E. faecium EFM010): 0.53
FIC ([2]; Vancomycin + peptide, E. faecium EFM011): 0.31
Vancomycin MIC + Peptide ([2]; in combination with the labelled peptide, E. faecalis EFS005): 4 µg/mL
Vancomycin MIC + Peptide ([2]; in combination with the labelled peptide, E. faecalis EFS010): 1 µg/mL
Vancomycin MIC + Peptide ([2]; in combination with the labelled peptide, E. faecalis EFS011): 2 µg/mL
Vancomycin MIC + Peptide ([2]; in combination with the labelled peptide, E. faecium EFM004): 0.125 µg/mL
Vancomycin MIC + Peptide ([2]; in combination with the labelled peptide, E. faecium EFM010): 1 µg/mL
Vancomycin MIC + Peptide ([2]; in combination with the labelled peptide, E. faecium EFM011): 2 µg/mL
Peptide MIC + Vancomycin ([2]; in combination with vancomycin, E. faecalis EFS005): 16 µg/mL
Peptide MIC + Vancomycin ([2]; in combination with vancomycin, E. faecalis EFS010): 1 µg/mL
Peptide MIC + Vancomycin ([2]; in combination with vancomycin, E. faecalis EFS011): 32 µg/mL
Peptide MIC + Vancomycin ([2]; in combination with vancomycin, E. faecium EFM004): 16 µg/mL
Peptide MIC + Vancomycin ([2]; in combination with vancomycin, E. faecium EFM010): 16 µg/mL
Peptide MIC + Vancomycin ([2]; in combination with vancomycin, E. faecium EFM011): 8 µg/mL
FIC ([2]; peptide + Amikacin, E. faecium EFM004): 0.56
FIC [2, 7]: 0.75
susceptibility of teicoplanin resistant enterococci to teicoplanin ([2]; teicoplanin in combination with peptide): become susceptible to teicoplanin
susceptibility of vancomycin resistant enterococci (VRE) to vancomycin ([2]; vancomycin in combination with peptide): become susceptible to vancomycin

KKWWRRALQGLKTAGPAIQSVLNK [MBI 21A2]
Peptide MIC + Amikacin ([1]; S. aureus MRSA): 1 µg/mL
Peptide MIC + Piperacillin ([1]; S. aureus MRSA): 64 µg/mL
Peptide MIC Alone ([1]; S. aureus MRSA, Amikacin section): 2 µg/mL
Peptide MIC Alone [1, 4]: >128 µg/mL
FIC ([1]; peptide + Amikacin, S. aureus MRSA): 0.56
FIC [1, 5]: 0.25
Amikacin MIC + Peptide ([2]; E. faecalis EFS008): 8 µg/mL
Peptide MIC + Amikacin ([2]; E. faecalis EFS008): 16 µg/mL
Peptide MIC Alone ([2]; E. faecalis EFS008, Amikacin section): >128 µg/mL
Amikacin MIC + Peptide ([2]; E. faecium EFM020): 2 µg/mL
Peptide MIC + Amikacin ([2]; E. faecium EFM020): 64 µg/mL
Peptide MIC Alone [2, 6]: 128 µg/mL
FIC ([2]; peptide + Amikacin, E. faecalis EFS008): 0.19
FIC [2, 7]: 0.56

ILKKFPFFPFRRK [MBI 11A1CN]
MIC (A. calcoaceticus): 16 µg/mL
MIC (E. cloacae): >128 µg/mL
MIC (E. coli; E. coli ECO002): 32 µg/mL
Peptide MIC values (E. coli; E. coli ATCC 25922): 128 µg/mL
Peptide MIC values (E. coli; E. coli ESS): 16 µg/mL
Peptide MIC values (E. coli; E. coli NCTC 10418): 16 µg/mL
MIC (E. faecalis): 32 µg/mL
MIC (E. faecium; E. faecium EFM002): 1 µg/mL
Peptide MIC values (E. faecium; agarose dilution): 128 µg/mL
MIC (H. influenzae): >128 µg/mL
MIC (K. pneumoniae): >128 µg/mL
MIC (P. aeruginosa; P. aeruginosa PA004): >128 µg/mL
Peptide MIC values (P. aeruginosa; P. aeruginosa ATCC 27853): >128 µg/mL
Peptide MIC values (P. aeruginosa; P. aeruginosa NCTC 10662): >128 µg/mL
MIC (S. aureus; S. aureus SA005): 8 µg/mL
Peptide MIC values (S. aureus; S. aureus ATCC 29213): 2 µg/mL
Peptide MIC values (S. aureus; S. aureus MRSA9): 8 µg/mL
Peptide MIC values (S. aureus; S. aureus MRSA13): >128 µg/mL
Peptide MIC values (S. aureus; S. aureus MRSA17): 32 µg/mL
Peptide MIC values (S. aureus; S. aureus SA206): 128 µg/mL
MIC (S. epidermidis): 16 µg/mL
MIC (S. maltophilia): >128 µg/mL
MIC (S. marcescens; S. marcescens SBSM2): >128 µg/mL
Peptide MIC values (S. marcescens; S. marcescens SM76): >128 µg/mL
Peptide MIC values (S. marcescens; S. marcescens SM82): >128 µg/mL
MIC (S. pneumoniae; S. pneumoniae SBSPN2): >128 µg/mL
Peptide MIC values (S. pneumoniae; S. pneumoniae 406LE8): >128 µg/mL
Peptide MIC values (S. pneumoniae; S. pneumoniae 60120): >128 µg/mL
Peptide MIC values (S. pneumoniae; S. pneumoniae ATCC 49619): >128 µg/mL
Peptide MIC + Tobramycin ([1]; S. haemolyticus): 0.125 µg/mL
Peptide MIC Alone ([1]; S. haemolyticus, Tobramycin section): 16 µg/mL
FIC ([1]; peptide + Tobramycin, S. aureus): 0.50
FIC ([1]; peptide + Tobramycin, S. haemolyticus): 0.51
Peptide MIC + Vancomycin ([2]; E. faecalis EFS003): 32 µg/mL
Vancomycin MIC + Peptide ([2]; E. faecalis EFS003): 4 µg/mL
Peptide MIC Alone ([2]; E. faecalis EFS003, Vancomycin section): >128 µg/mL
Peptide MIC + Vancomycin ([2]; E. faecalis EFS006): 0.25 µg/mL
Vancomycin MIC + Peptide ([2]; E. faecalis EFS006): 4 µg/mL
Peptide MIC Alone ([2]; E. faecalis EFS006, Vancomycin section): 128 µg/mL
Peptide MIC + Vancomycin ([2]; E. faecalis EFS010): 8 µg/mL
Vancomycin MIC + Peptide ([2]; E. faecalis EFS010): 1 µg/mL
Peptide MIC Alone ([2]; E. faecalis EFS010, Vancomycin section): 128 µg/mL
Peptide MIC + Vancomycin ([2]; E. faecalis EFS014): 2 µg/mL
Vancomycin MIC + Peptide ([2]; E. faecalis EFS014): 1 µg/mL
Peptide MIC Alone ([2]; E. faecalis EFS014, Vancomycin section): 4 µg/mL
Peptide MIC + Vancomycin ([2]; E. faecium EFM004): 16 µg/mL
Vancomycin MIC + Peptide ([2]; E. faecium EFM004): 0.5 µg/mL
Peptide MIC Alone ([2]; E. faecium EFM004, Vancomycin section): 32 µg/mL
Peptide MIC + Vancomycin ([2]; E. faecium EFM007): 16 µg/mL
Vancomycin MIC + Peptide ([2]; E. faecium EFM007): 4 µg/mL
Peptide MIC Alone ([2]; E. faecium EFM007, Vancomycin section): 64 µg/mL
Peptide MIC + Vancomycin ([2]; E. faecium EFM009): 8 µg/mL
Vancomycin MIC + Peptide ([2]; E. faecium EFM009): 4 µg/mL
Peptide MIC Alone ([2]; E. faecium EFM009, Vancomycin section): 64 µg/mL
FIC ([2]; peptide + Vancomycin, E. faecalis EFS003): 0.63
FIC ([2]; peptide + Vancomycin, E. faecalis EFS006): 0.50
FIC ([2]; peptide + Vancomycin, E. faecalis EFS010): 0.13
FIC ([2]; peptide + Vancomycin, E. faecalis EFS014): 0.51
FIC ([2]; peptide + Vancomycin, E. faecium EFM004): 0.50
FIC ([2]; peptide + Vancomycin, E. faecium EFM007): 0.28
FIC ([2]; peptide + Vancomycin, E. faecium EFM009): 0.25
% Survival ([3]; 12 mg/kg ip): 0%
% Survival ([3]; 18 mg/kg ip): 0%
% Survival ([3]; 24 mg/kg ip): 0%
